The subject of one assay is MIA PaCa-2. Description: Cytotoxicity against human MIAPaCa2 cells after 24 hrs by MTT assay. It is filed as functional, cell-based. To be noted: MIA PaCa-2, 24 h.
Assay [1] is described as follows: Cytotoxicity against human MV-3 cells after 24 hrs by MTT assay. It is filed as functional, cell-based. The note with it: MV-3, 24 h.

For the molecule `COc1c(O)c(C(C)C)c(O)c2c1[C@@]1(C)CCCC(C)(C)[C@@H]1CC2=O` [ORTHOSIPHONOL], the IC50 was > 100 µM in the assay with MIA PaCa-2 and > 80 µM in assay [1].

For `CC(C)C1=C(O)C(=O)C2=C(C1=O)[C@H](O)C[C@H]1C(C)(C)CCC[C@]21C` [HORMINONE], the values for the IC50 (in the assay with MIA PaCa-2; in assay [1]) were 27.5 µM and 16.7 µM, respectively.

With `CC(C)C1=C(O)C(=O)C2=C(CC[C@H]3C(C)(C)CCC[C@]23C)C1=O` [ROYLEANONE], the values for the IC50 (in the assay with MIA PaCa-2; in assay [1]) were 32.5 µM and > 80 µM, respectively.

In turn, `CC[C@@]1(O)C(=O)OCc2c1cc1n(c2=O)Cc2cc3ccccc3nc2-1` [CAMPTOTHECIN] returned a half-maximal inhibitory concentration (IC50) with MIA PaCa-2 of 0.4 µM. That is a sub-micromolar value.

`CC(C)c1cc2ccc3c(c2c(O)c1O)C(=O)CCC3(C)C` [MILTIODIOL] came in with an IC50 in the assay on MIA PaCa-2 of 66.3 µM.

In the assay on MIA PaCa-2, `Cc1coc2c1C(=O)C(=O)c1c-2ccc2c(C)cccc12` [TANSHINONE I] gave an IC50 of 10.5 µM.

Molecule `Cc1coc2c1C(=O)C(=O)c1c-2ccc2c1CCCC2(C)C` [TANSHINONE IIA] yielded an IC50 in the assay on MIA PaCa-2 of 1.9 µM.

On to `COc1c(C(C)C)cc2c(c1O)[C@@]1(C)CCCC(C)(C)[C@@H]1[C@@H](O)C2` [IGUESTOL], for which the IC50 was found to be 41.3 µM in the assay on MIA PaCa-2 and 65.9 µM in assay [1].

Take `CC(C)C1=Cc2ccc3c(c2C(=O)C1=O)CCCC3(C)C` [MILTIRONE]: the concentration for half-maximal inhibition (IC50) in the assay on MIA PaCa-2 was found to be 22.5 µM.

For `CC(C)C1=Cc2ccc3c(c2C(=O)C1=O)C(=O)CCC3(C)C`, in the assay with MIA PaCa-2, inhibition was half-maximal at 29.9 µM (IC50).

Consider `C[C@H]1COC2=C1C(=O)C(=O)c1c2ccc2c1CCCC2(C)C` [CRYPTOTANSHINONE], for which half-maximal inhibition in the assay with MIA PaCa-2 (IC50) required 5.8 µM.

Regarding `CC1=CCCc2c1ccc1c2C(=O)C(=O)c2c(C)coc2-1`, the IC50 in the assay with MIA PaCa-2 came out at 5.6 µM.

For the molecule `CC(C)c1cc2c(cc1O)[C@@]1(C)CCCC(C)(C)[C@@H]1CC2` [FERRUGINOL], the IC50 in the assay with MIA PaCa-2 was determined as 25.9 µM. Against the preceding molecule, the IC50 is about 4.6-fold higher.

In the case of `CC(C)C1=C(O)C(=O)C2=C(C(=O)C[C@H]3C(C)(C)CCC[C@]23C)C1=O`, the IC50 in the assay on MIA PaCa-2 was 30.1 µM; in assay [1] it was 65.8 µM.

As to `CC(C)C1=C(O)C(=O)c2c(ccc3c2CCCC3(C)C)C1=O` [DEOXYNEOCRYPTOTANSHINONE], the IC50 in the assay on MIA PaCa-2 was > 100 µM; in assay [1], > 150 µM.

For the molecule `CC(=O)O[C@@H]1C[C@H]2C(C)(C)CCC[C@]2(C)C2=C1C(=O)C(C(C)C)=C(O)C2=O`, the IC50 with MIA PaCa-2 amounted to 4.7 µM; in assay [1], 7.4 µM.

For the molecule `CCO[C@@H]1C[C@H]2C(C)(C)CCC[C@]2(C)C2=C1C(=O)C(C(C)C)=C(O)C2=O`, the figures for the IC50 (in the assay with MIA PaCa-2; in assay [1]) were > 100 µM and > 80 µM, respectively.

Take `COc1c(C(C)C)cc2c(c1O)[C@@]1(C)CCCC(C)(C)[C@@H]1CC2=O` [CRYPTOJAPONOL]: the IC50 was > 100 µM with MIA PaCa-2 and > 80 µM in assay [1].

For `COc1c(O)c2c(c(O)c1C(C)C)C(=O)C[C@H]1C(C)(C)CCC[C@]21C` [INUROYLEANOL], the IC50 in the assay with MIA PaCa-2 was > 80 µM; in assay [1], > 120 µM.

With `CC(C)=CCCc1c(C)ccc2c1C(=O)C=C(C(C)C)C2=O` [SAHANDINONE], in the assay with MIA PaCa-2, the midpoint of inhibition, the IC50, lay at 10.2 µM.

In the case of `CC(C)c1cc2c(cc1O)[C@@]1(C)CCCC(C)(C)[C@@H]1CC2=O` [SUGIOL], the IC50 in the assay with MIA PaCa-2 is 17.9 µM; in assay [1], 34.1 µM.

For the molecule `COc1c(O)c(C(C)C)cc2c1[C@@]1(C)CCCC(C)(C)[C@@H]1CC2=O`, the IC50 in the assay with MIA PaCa-2 was 34.9 µM; in assay [1] it was 32.3 µM.

The values above are taken from ChEMBL document CHEMBL1811852, “In vitro cytotoxic activity of abietane diterpenes from Peltodon longipes as well as Salvia miltiorrhiza and Salvia sahendica” (Bioorg Med Chem, 2011).
